The subject of the data set is CCRIS mutagenicity, Ames/micronucleus/aberration tests. Description: CCRIS mutagenicity studies.
The mark [1] stands for this setting: Test System: AMES SALMONELLA TYPHIMURIUM, Strain/Indicator: TA98, Metabolic Activation: HAMSTER, LIVER, S-9, AROCLOR 1254 (10%), Method: PREINCUBATION
The mark [2] stands for this setting: Test System: AMES SALMONELLA TYPHIMURIUM, Strain/Indicator: TA98, Metabolic Activation: NONE, Method: PREINCUBATION
[3] abbreviates: Test System: AMES SALMONELLA TYPHIMURIUM, Strain/Indicator: TA98, Metabolic Activation: RAT, LIVER, S-9, AROCLOR 1254 (10%), Method: PREINCUBATION
Where [4] appears, read: Test System: AMES SALMONELLA TYPHIMURIUM, Strain/Indicator: TA100, Metabolic Activation: HAMSTER, LIVER, S-9, AROCLOR 1254 (10%), Method: PREINCUBATION
[5] abbreviates: Test System: AMES SALMONELLA TYPHIMURIUM, Strain/Indicator: TA100, Metabolic Activation: NONE, Method: PREINCUBATION
Setting [6] is: Test System: AMES SALMONELLA TYPHIMURIUM, Strain/Indicator: TA100, Metabolic Activation: RAT, LIVER, S-9, AROCLOR 1254 (10%), Method: PREINCUBATION
[7] abbreviates: Test System: AMES SALMONELLA TYPHIMURIUM, Strain/Indicator: TA1535, Metabolic Activation: HAMSTER, LIVER, S-9, AROCLOR 1254 (10%), Method: PREINCUBATION
Where [8] appears, read: Test System: AMES SALMONELLA TYPHIMURIUM, Strain/Indicator: TA1535, Metabolic Activation: NONE, Method: PREINCUBATION
The mark [9] stands for this setting: Test System: AMES SALMONELLA TYPHIMURIUM, Strain/Indicator: TA1535, Metabolic Activation: RAT, LIVER, S-9, AROCLOR 1254 (10%), Method: PREINCUBATION
[10] abbreviates: Test System: AMES SALMONELLA TYPHIMURIUM, Strain/Indicator: TA1537, Metabolic Activation: HAMSTER, LIVER, S-9, AROCLOR 1254 (10%), Method: PREINCUBATION
Where [11] appears, read: Test System: AMES SALMONELLA TYPHIMURIUM, Strain/Indicator: TA1537, Metabolic Activation: NONE, Method: PREINCUBATION
[12] abbreviates: Test System: AMES SALMONELLA TYPHIMURIUM, Strain/Indicator: TA1537, Metabolic Activation: RAT, LIVER, S-9, AROCLOR 1254 (10%), Method: PREINCUBATION
Where [13] appears, read: Test System: AMES SALMONELLA TYPHIMURIUM, Strain/Indicator: TA98, Metabolic Activation: NONE, Method: STANDARD PLATE.
Setting [14] is: Test System: AMES SALMONELLA TYPHIMURIUM, Strain/Indicator: TA100, Metabolic Activation: NONE, Method: STANDARD PLATE.

The source made the active and inactive calls. How the calls were made is not given here.

On to `c1ccc(OP(Oc2ccccc2)Oc2ccccc2)cc1`, for which the mutagenic call runs as follows: under setting [1], “inactive; negative”; under setting [2], “inactive; negative”; under setting [3], “inactive; negative”; under setting [4], “inactive; negative”; under setting [5], “inactive; negative”; under setting [6], “inactive; negative”. In addition, the mutagenic call is, setting by setting: under setting [7], “inactive; negative”; under setting [8], “inactive; negative”; under setting [9], “inactive; negative”; under setting [10], “inactive; negative”; under setting [11], “inactive; negative”; under setting [12], “inactive; negative”.
Regarding `O=[N+]([O-])c1cccc2c1ccc1ccccc12`, the mutagenic call is “active; positive” (Test System: AMES SALMONELLA TYPHIMURIUM, Strain/Indicator: TA98(1,8-DNP6), Metabolic Activation: NONE, Method: STANDARD PLATE); “active; positive” (Test System: AMES SALMONELLA TYPHIMURIUM, Strain/Indicator: TA98(NR), Metabolic Activation: NONE, Method: STANDARD PLATE); “active; positive” under setting [13]; “active; positive” under setting [14]; “active; positive” (Test System: AMES SALMONELLA TYPHIMURIUM, Strain/Indicator: YG1021, Metabolic Activation: NONE, Method: STANDARD PLATE); “active; positive” (Test System: AMES SALMONELLA TYPHIMURIUM, Strain/Indicator: YG1024, Metabolic Activation: NONE, Method: STANDARD PLATE). Also, the mutagenic call (Test System: AMES SALMONELLA TYPHIMURIUM, Strain/Indicator: YG1026, Metabolic Activation: NONE, Method: STANDARD PLATE) was “active; positive” and the mutagenic call (Test System: AMES SALMONELLA TYPHIMURIUM, Strain/Indicator: YG1029, Metabolic Activation: NONE, Method: STANDARD PLATE) was “active; positive”.
In the case of `CC1=CC(=O)c2nc(C)c3c([nH]c4ccccc43)c2C1=O`, the mutagenic call by setting is: (Test System: AMES SALMONELLA TYPHIMURIUM, Strain/Indicator: TA97, Metabolic Activation: NONE, Method: STANDARD PLATE) “active; positive”; (Test System: AMES SALMONELLA TYPHIMURIUM, Strain/Indicator: TA97, Metabolic Activation: RAT, LIVER, S-9, AROCLOR 1254, Method: STANDARD PLATE) “active; positive”; under setting [13], “active; positive”; (Test System: AMES SALMONELLA TYPHIMURIUM, Strain/Indicator: TA98, Metabolic Activation: RAT, LIVER, S-9, AROCLOR 1254, Method: STANDARD PLATE) “active; positive”; under setting [14], “active; positive”; (Test System: AMES SALMONELLA TYPHIMURIUM, Strain/Indicator: TA100, Metabolic Activation: RAT, LIVER, S-9, AROCLOR 1254, Method: STANDARD PLATE) “inactive; negative”. In addition, the mutagenic call was “inactive; negative” (Test System: AMES SALMONELLA TYPHIMURIUM, Strain/Indicator: TA102, Metabolic Activation: NONE, Method: STANDARD PLATE) and “inactive; negative” (Test System: AMES SALMONELLA TYPHIMURIUM, Strain/Indicator: TA102, Metabolic Activation: RAT, LIVER, S-9, AROCLOR 1254, Method: STANDARD PLATE).
With `Cc1ccc2nc3ccc(C)cc3c(N)c2c1`, the mutagenic call under setting [11] is “active; positive”.
For the molecule `CC1=C[C@H](O)[C@H]2C[C@@H]1C2(C)C`, the mutagenic call by setting is: under setting [13], “inactive; negative”; (Test System: AMES SALMONELLA TYPHIMURIUM, Strain/Indicator: TA98, Metabolic Activation: RAT, LIVER, S-9, Method: STANDARD PLATE) “inactive; negative”; under setting [14], “inactive; negative”; (Test System: AMES SALMONELLA TYPHIMURIUM, Strain/Indicator: TA100, Metabolic Activation: RAT, LIVER, S-9, Method: STANDARD PLATE) “inactive; negative”; (Test System: AMES SALMONELLA TYPHIMURIUM, Strain/Indicator: TA1535, Metabolic Activation: NONE, Method: STANDARD PLATE) “inactive; negative”; (Test System: AMES SALMONELLA TYPHIMURIUM, Strain/Indicator: TA1535, Metabolic Activation: RAT, LIVER, S-9, Method: STANDARD PLATE) “inactive; negative”. In addition, the mutagenic call was “inactive; negative” (Test System: AMES SALMONELLA TYPHIMURIUM, Strain/Indicator: TA1538, Metabolic Activation: NONE, Method: STANDARD PLATE) and “inactive; negative” (Test System: AMES SALMONELLA TYPHIMURIUM, Strain/Indicator: TA1538, Metabolic Activation: RAT, LIVER, S-9, Method: STANDARD PLATE).
`C[C@]12CC[C@@H]3c4ccc(O)cc4CC[C@H]3C13CCC2(O)CC3`: the mutagenic call is “inactive; negative at 20-24 hr; positive (high doses) at 48 hr” (End Point: IN VITRO CHROMOSOMAL ABERRATIONS, Test System: HUMAN PERIPHERAL LYMPHOCYTES, Metabolic Activation: NONE) and “inactive; negative” (End Point: IN VITRO CHROMOSOMAL ABERRATIONS, Test System: HUMAN PERIPHERAL LYMPHOCYTES, Metabolic Activation: RAT, LIVER, S-9, AROCLOR 1254).
Take `O=S1(=O)CC=CC1`: the mutagenic call is “inactive; negative” (End Point: IN VITRO CHROMOSOMAL ABERRATIONS, Test System: CHO-LB CELLS, Metabolic Activation: NONE); “inactive; negative” (End Point: IN VITRO CHROMOSOMAL ABERRATIONS, Test System: CHO-LB CELLS, Metabolic Activation: RAT, LIVER, S-9, AROCLOR 1254); “inactive; negative” under setting [1]; “inactive; negative” under setting [2]; “inactive; negative” under setting [3]; “inactive; negative” under setting [4]. In addition, the mutagenic call is “inactive; negative” under setting [5]; “inactive; negative” under setting [6]; “inactive; negative” under setting [7]; “inactive; negative” under setting [8]; “inactive; negative” under setting [9]; “inactive; negative” under setting [10]. Moreover, the mutagenic call was “inactive; negative” under setting [11] and “inactive; negative” under setting [12].

Source of the values: PubChem BioAssay AID1259407 (Chemical Carcinogenesis Research Information System (CCRIS), 2018).
